Converted amounts (≈) assume the structure as drawn. Read-outs that look alike come from different tables or passages of the source.
Key:
hFAP = hFAP (Homo sapiens (Human), UniProt Q12884);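 note: fluorescence read after incubating enzyme with substrate at room temperature, IC50 fitted from percent inhibition against log concentration with a one-site model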
Description: Compounds were tested in a biochemical inhibition assay using hFAP enzyme at 0.24 nM FAC (Proteros, 38-760 (PR-0071)) and the substrate Ala-Pro-AMC (ARI-3144) at 20 μM FAC. 384 low volume black plates (Greiner #784076) were used. 4 μL, 0.48 nM enzyme solution (100 mM Tris HCl, 100 mM NaCl, 0.05% Chaps, pH 7.4) was added to 40 nL compounds (in DMSO) at 10 CR, 3-fold dilution series from 50 μM FAC. Plates were incubated for 15 min at rt in dark. 4 μL, 40 μM substrate solution (100 mM Tris HCl, 100 mM NaCl, 0.05% Chaps, pH 7.4) was added to each well. Plates were centrifuged at 1000 rpm and incubated for 30 min at rt in dark. The plates were read on a PHERAstar® reader with excitation 340 nm and emission 460 nm. Data were analyzed in Genedata Screener®. IC50 values were determined by plotting % inhibition versus log compound concentration and using a one site dose response model.

[1] = Metabolic stability in human liver microsomes (HLM); assay type: in vitro ADME
Description: Metabolic stability in HLM was measured as described in J Comput Aided Mol Des 2015, 29, 795.

Human Hepatocytes (hHep) = test: Metabolic stability in human hepatocytes (hHep); assay type: in vitro ADME
Description: Metabolic stability in human hepatocytes was measured as described in Xenobiotica 2010, 40, 637.

[2] = molecular target: human Fibroblast activation protein alpha (hFAP) (Homo sapiens (Human), UniProt Q12884); test: hFAP inhibition assay (tight binders); assay type: biochemical; conditions: tight-binder format, Ala-Pro-AMC 20 μM, 2.5 h incubation; n = 1 or geometric mean (n = 5-10)
Chain of human Fibroblast activation protein alpha (hFAP) (Q12884 38-760): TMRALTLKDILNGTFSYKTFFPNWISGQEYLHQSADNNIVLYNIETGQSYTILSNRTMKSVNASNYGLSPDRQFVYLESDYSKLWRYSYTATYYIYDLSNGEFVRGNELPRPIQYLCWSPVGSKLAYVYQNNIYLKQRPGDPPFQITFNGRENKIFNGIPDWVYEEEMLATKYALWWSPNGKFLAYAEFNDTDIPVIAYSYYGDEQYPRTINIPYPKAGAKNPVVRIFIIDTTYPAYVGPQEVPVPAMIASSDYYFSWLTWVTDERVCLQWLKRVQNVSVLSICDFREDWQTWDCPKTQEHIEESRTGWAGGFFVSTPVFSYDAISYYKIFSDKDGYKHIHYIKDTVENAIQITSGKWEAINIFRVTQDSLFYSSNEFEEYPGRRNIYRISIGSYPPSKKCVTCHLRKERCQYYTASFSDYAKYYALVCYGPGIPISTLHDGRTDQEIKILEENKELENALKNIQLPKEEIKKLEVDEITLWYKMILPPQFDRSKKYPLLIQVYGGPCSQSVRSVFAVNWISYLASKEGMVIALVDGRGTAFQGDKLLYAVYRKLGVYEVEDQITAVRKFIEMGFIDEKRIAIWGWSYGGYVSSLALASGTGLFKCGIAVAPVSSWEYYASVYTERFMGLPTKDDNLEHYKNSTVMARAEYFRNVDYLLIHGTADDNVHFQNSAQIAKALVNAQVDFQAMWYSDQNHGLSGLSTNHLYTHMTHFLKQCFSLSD
Description: Data were analyzed in Genedata Screener®.

Kinetic solubility = assay type: physicochemical
Description: Kinetic solubility was measured as described in Comput Aided Mol Des 2015, 29, 795.

Rat Hepatocytes (rHep) = test: Metabolic stability in rat hepatocytes (rHep); assay type: in vitro ADME
Description: Metabolic stability in rat hepatocytes was measured as described in J Comput Aided Mol Des 2015, 29, 795.

[3] = molecular target: Prolyl Oligopeptidase (hPREP) (Homo sapiens (Human), UniProt P48147); test: hPREP inhibition assay; assay type: biochemical; conditions: hPREP 0.6 nM, Z-Gly-Pro-amino-methylcoumarin 50 μM; read-out: PREP IC50
Chain of Prolyl Oligopeptidase (hPREP) (P48147 whole entry): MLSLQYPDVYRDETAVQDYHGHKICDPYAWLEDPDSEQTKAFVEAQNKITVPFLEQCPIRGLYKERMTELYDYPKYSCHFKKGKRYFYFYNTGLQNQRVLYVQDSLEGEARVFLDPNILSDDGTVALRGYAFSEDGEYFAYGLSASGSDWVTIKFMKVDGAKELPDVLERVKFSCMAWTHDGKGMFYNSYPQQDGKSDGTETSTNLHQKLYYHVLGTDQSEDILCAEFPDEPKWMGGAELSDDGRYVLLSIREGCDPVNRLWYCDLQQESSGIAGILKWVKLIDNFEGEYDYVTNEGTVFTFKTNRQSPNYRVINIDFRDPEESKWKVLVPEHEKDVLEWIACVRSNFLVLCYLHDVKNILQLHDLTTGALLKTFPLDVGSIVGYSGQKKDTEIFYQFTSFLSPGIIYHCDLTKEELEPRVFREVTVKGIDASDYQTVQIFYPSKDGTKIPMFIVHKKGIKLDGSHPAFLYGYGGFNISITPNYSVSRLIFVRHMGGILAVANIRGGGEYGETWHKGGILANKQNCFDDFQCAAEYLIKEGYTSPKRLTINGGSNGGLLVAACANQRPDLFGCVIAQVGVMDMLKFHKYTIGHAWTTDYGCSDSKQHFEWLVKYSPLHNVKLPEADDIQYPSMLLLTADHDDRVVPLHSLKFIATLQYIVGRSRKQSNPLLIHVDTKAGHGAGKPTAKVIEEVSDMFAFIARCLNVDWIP
Description: Compounds were tested in a biochemical inhibition assay using Prolyl endopeptidase, Prolyl Oligopeptidase (hPREP) enzyme at 0.6 nM FAC (R&D Systems, 4308-SE) and the substrate Z-Gly-Pro-amino-methylcoumarin (Bachem, I-1145) at 50 μM FAC. 384 Low volume black plates (Greiner #784076) were used. […] 4 μL, 100 μM substrate solution (25 mM Tris HCl, 250 mM NaCl, 0.01% Triton X-100, 5 mM Glutathione, pH 7.5) was added to each well. Plates were centrifuged at 1000 rpm and incubated for 20 min at rt in dark. […] Data were analyzed in Genedata Screener®.

Chain of hFAP (Q12884 38-760): as the sequence (Q12884 38-760) above

SMILES | IC50 (hFAP) [nM] | microsomal CLint [1] [µL/min/mg] | hHep CLint (Human Hepatocytes (hHep)) [μL/min/1E6] | IC50 [2] [nM] | solubility (Kinetic solubility; kinetic from dmso stock) [µM] | rHeps CLint (Rat Hepatocytes (rHep)) [μL/min/1E6] | IC50 [3] [nM] | solubility (Kinetic solubility) [µM]
Cc1cc(C(=O)NCC(=O)N2[C@H](C#N)C[C@@H]3C[C@@H]32)c2cc(F)ccc2n1 [Example 4, N-(2-((1S,3S,5S)-3-Cyano-2-azabicyclo[3.1.0]hexan-2-yl)-2-oxoethyl)-6-fluoro-2-methylquinoline-4-carboxamide] | 64 | < 3 | <1 | 32 | > 1000 | 1.2 | 22000 | –
Cc1cc(C(=O)NCC(=O)N2[C@H](C#N)C[C@@H]3C[C@@H]32)c2cc(Cl)ccc2n1 [Example 5, 6-Chloro-N-(2-((1S,3S,5S)-3-cyano-2-azabicyclo[3.1.0]hexan-2-yl)-2-oxoethyl)-2-methylquinoline-4-carboxamide] | 65 | 11 | – | 18 | 140 (≈ 51.6 µg/mL) | 2.8 | 18000 | –
Cc1cc(C(=O)NCC(=O)N2[C@H](C#N)C[C@@H]3C[C@@H]32)c2cc(Br)ccc2n1 [Example 6, 6-Bromo-N-(2-((1S,3S,5S)-3-cyano-2-azabicyclo[3.1.0]hexan-2-yl)-2-oxoethyl)-2-methylquinoline-4-carboxamide] | 58 | 23 | – | 18 | 61 (≈ 25.2 µg/mL) | 5.8 | 13000 | –
Cc1cc(C(=O)NCC(=O)N2[C@H](C#N)C[C@@H]3C[C@@H]32)c2cc(I)ccc2n1 [Example 7, N-(2-((1S,3S,5S)-3-Cyano-2-azabicyclo[3.1.0]hexan-2-yl)-2-oxoethyl)-6-iodo-2-methylquinoline-4-carboxamide] | 53 | 43 | – | 15 | 23 (≈ 10.6 µg/mL) | 12 | 18000 | –
CC(O)c1ccc2nccc(C(=O)NCC(=O)N3[C@H](C#N)C[C@@H]4C[C@@H]43)c2c1 (stereo partly drawn) [Example 14, N-(2-((1S,3S,5S)-3-Cyano-2-azabicyclo[3.1.0]hexan-2-yl)-2-oxoethyl)-6-(1-hydroxyethyl)quinoline-4-carboxamide] | 2.6 | < 3 | – | 0.91 | > 1000 | <1 | > 50000 | –
CCc1ccc2nc(C)cc(C(=O)NCC(=O)N3[C@H](C#N)C[C@@H]4C[C@@H]43)c2c1 [Example 18, N-(2-((1S,3S,5S)-3-Cyano-2-azabicyclo[3.1.0]hexan-2-yl)-2-oxoethyl)-6-ethyl-2-methylquinoline-4-carboxamide] | 80 | 120 | – | 25 | 800 (≈ 290 µg/mL) | 18 | > 50000 | –
Cc1ccc2nc(C)cc(C(=O)NCC(=O)N3[C@H](C#N)C[C@@H]4C[C@@H]43)c2c1 [Example 19, N-(2-((1S,3S,5S)-3-Cyano-2-azabicyclo[3.1.0]hexan-2-yl)-2-oxoethyl)-2,6-dimethylquinoline-4-carboxamide] | 80 | 12 | – | 33 | > 1000 | <1 | 43000 | –
CC(O)c1ccc2c(C(=O)NCC(=O)N3[C@H](C#N)C[C@@H]4C[C@@H]43)ccnc2c1 (stereo partly drawn) [Example 25, N-(2-((1S,3S,5S)-3-Cyano-2-azabicyclo[3.1.0]hexan-2-yl)-2-oxoethyl)-7-(1-hydroxyethyl)quinoline-4-carboxamide] | < 1.8 | < 3 | – | 0.37 | 960 (≈ 350 µg/mL) | <1 | > 50000 | –
CC(C)(O)c1ccc2c(C(=O)NCC(=O)N3[C@H](C#N)C[C@@H]4C[C@@H]43)ccnc2c1 [Example 26, N-(2-((1S,3S,5S)-3-Cyano-2-azabicyclo[3.1.0]hexan-2-yl)-2-oxoethyl)-7-(2-hydroxypropan-2-yl)quinoline-4-carboxamide] | 2.1 | < 3 | – | 0.7 | > 1000 | <1 | > 50000 | –
CC(OC(F)(F)F)c1ccc2c(C(=O)NCC(=O)N3[C@H](C#N)C[C@@H]4C[C@@H]43)ccnc2c1 (stereo partly drawn) [Example 30, N-(2-((1S,3S,5S)-3-Cyano-2-azabicyclo[3.1.0]hexan-2-yl)-2-oxoethyl)-7-(1-(trifluoromethoxy)ethyl)quinoline-4-carboxamide] | 3.1 | 42 | – | 0.41 | 200 (≈ 86.5 µg/mL) | 16 | > 50000 | –
CC1(c2ccc3c(C(=O)NCC(=O)N4[C@H](C#N)C[C@@H]5C[C@@H]54)ccnc3c2)CC1 [Example 32, N-(2-((1S,3S,5S)-3-Cyano-2-azabicyclo[3.1.0]hexan-2-yl)-2-oxoethyl)-7-(1-methylcyclopropyl)quinoline-4-carboxamide] | 2 | 46 | – | – | 37 (≈ 13.9 µg/mL) | 72 | > 50000 | –
N#C[C@@H]1C[C@@H]2C[C@@H]2N1C(=O)CNC(=O)c1ccnc2ccc(OCC(F)(F)F)cc12 [Example 33, N-(2-((1S,3S,5S)-3-Cyano-2-azabicyclo[3.1.0]hexan-2-yl)-2-oxoethyl)-6-(2,2,2-trifluoroethoxy)quinoline-4-carboxamide] | 1.4 | 170 | 25 | – | 700 (≈ 293 µg/mL) | 9.8 | – | –
N#C[C@@H]1C[C@@H]2C[C@@H]2N1C(=O)CNC(=O)c1ccnc2ccc(OC3CCC(F)(F)CC3)cc12 [Example 38, N-(2-((1S,3S,5S)-3-Cyano-2-azabicyclo[3.1.0]hexan-2-yl)-2-oxoethyl)-6-((4,4-difluorocyclohexyl)oxy)quinoline-4-carboxamide] | 1.3 | 190 | – | – | 430 (≈ 195 µg/mL) | 55 | > 50000 | –
CCOC1(c2ccc3c(C(=O)NCC(=O)N4[C@H](C#N)C[C@@H]5C[C@@H]54)ccnc3c2)CC1 [Example 39, N-(2-((1S,3S,5S)-3-Cyano-2-azabicyclo[3.1.0]hexan-2-yl)-2-oxoethyl)-7-(1-ethoxycyclopropyl)quinoline-4-carboxamide] | 1.5 | 77 | – | 0.41 | 960 (≈ 388 µg/mL) | 13 | > 50000 | –
N#C[C@@H]1C[C@@H]2C[C@@H]2N1C(=O)CNC(=O)c1ccnc2ccc(C3CC3)cc12 [Example 42, N-(2-((1S,3S,5S)-3-Cyano-2-azabicyclo[3.1.0]hexan-2-yl)-2-oxoethyl)-6-cyclopropylquinoline-4-carboxamide] | 5.6 | – | – | – | – | – | – | –
N#C[C@@H]1C[C@@H]2C[C@@H]2N1C(=O)CNC(=O)c1ccnc2cc(C3CC3)ccc12 [Example 47, N-(2-((1S,3S,5S)-3-Cyano-2-azabicyclo[3.1.0]hexan-2-yl)-2-oxoethyl)-7-cyclopropylquinoline-4-carboxamide] | – | – | – | – | – | – | – | 590 (≈ 213 µg/mL)
N#C[C@@H]1CSCN1C(=O)CNC(=O)c1ccnc2ccccc12 [Reference Compound C, (R)-N-(2-(4-cyanothiazolidin-3-yl)-2-oxoethyl)-quinoline-4-carboxamide, reference compound] | – | – | – | – | – | – | 7.1 | –

From US20230406840A1, “N-(2-(3-CYANO-2-AZABICYCLO[3.1.0]HEXAN-2-YL)-2-OXOETHYL)QUINOLINE-4-CARBOXAMIDES” (AstraZeneca AB, priority 2022, published 2023)
